Paper PMC12136037, “Type II kinase inhibitors that target Parkinson’s disease–associated LRRK2” (Science Advances, 2025)

Columns and labels:
Experiment in all cases: DSF 100 kinase selectivity screen;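 further: compound tested at 20 µM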
Assay type in all cases: binding
[1] = target: T1, ~100 representative kinases (Homo sapiens, UniProt O43293); conditions: Protein DAPK3; average of three replicates
T1 construct: Recombinant protein kinase domains with a concentration of 2 μM
Outline: (§1)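 Each kinase domain, at 2 μM, is mixed with 20 μM test compound and SYPRO Orange in Hepes (20 mM, pH 7.5) with 500 mM NaCl. Temperature is then raised at 3°C/min and fluorescence-monitored unfolding yields the melting temperature change, ΔTm in degrees Celsius.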

[2] = target: T2, ~100 representative kinases (Homo sapiens, UniProt O94768); conditions: Protein STK17B; DSF; average of three replicates
T2 construct: Recombinant protein kinase domains with a concentration of 2 μM
T2 sequence (O94768 1-372): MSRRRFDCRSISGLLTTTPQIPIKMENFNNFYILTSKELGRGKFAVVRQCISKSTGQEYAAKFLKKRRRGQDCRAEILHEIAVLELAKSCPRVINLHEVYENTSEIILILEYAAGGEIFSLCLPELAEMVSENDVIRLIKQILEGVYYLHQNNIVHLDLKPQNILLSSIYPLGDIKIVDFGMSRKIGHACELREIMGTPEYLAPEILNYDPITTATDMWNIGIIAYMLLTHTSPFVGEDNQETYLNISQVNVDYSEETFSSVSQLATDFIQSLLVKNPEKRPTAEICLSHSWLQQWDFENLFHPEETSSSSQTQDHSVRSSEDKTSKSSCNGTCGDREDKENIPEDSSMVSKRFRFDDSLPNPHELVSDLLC
Outline: as §1

[3] = target: T3, ~100 representative kinases (Homo sapiens, UniProt P22830); conditions: protein FECH; average of three replicates
T3 construct: Recombinant protein kinase domains with a concentration of 2 μM
T3 sequence (P22830 55-423): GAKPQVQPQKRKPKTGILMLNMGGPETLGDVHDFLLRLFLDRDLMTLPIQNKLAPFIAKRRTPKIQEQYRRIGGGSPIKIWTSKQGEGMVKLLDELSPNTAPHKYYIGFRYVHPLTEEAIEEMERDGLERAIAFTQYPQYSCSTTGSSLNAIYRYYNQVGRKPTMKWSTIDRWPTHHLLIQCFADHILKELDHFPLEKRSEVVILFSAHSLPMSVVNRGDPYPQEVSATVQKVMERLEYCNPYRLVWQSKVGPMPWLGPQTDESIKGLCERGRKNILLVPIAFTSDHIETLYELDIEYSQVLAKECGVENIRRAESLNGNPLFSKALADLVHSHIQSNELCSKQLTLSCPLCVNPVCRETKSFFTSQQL
Outline: as §1

[4] = target: T4, ~100 representative kinases (Homo sapiens, UniProt P49841); conditions: protein GSK3B; average of three replicates
T4 construct: Recombinant protein kinase domains with a concentration of 2 μM
Outline: as §1

[5] = target: T5, ~100 representative kinases (Homo sapiens, UniProt Q8TD08); conditions: protein MAPK15; average of three replicates
T5 construct: Recombinant protein kinase domains with a concentration of 2 μM
T5 sequence (Q8TD08 1-544): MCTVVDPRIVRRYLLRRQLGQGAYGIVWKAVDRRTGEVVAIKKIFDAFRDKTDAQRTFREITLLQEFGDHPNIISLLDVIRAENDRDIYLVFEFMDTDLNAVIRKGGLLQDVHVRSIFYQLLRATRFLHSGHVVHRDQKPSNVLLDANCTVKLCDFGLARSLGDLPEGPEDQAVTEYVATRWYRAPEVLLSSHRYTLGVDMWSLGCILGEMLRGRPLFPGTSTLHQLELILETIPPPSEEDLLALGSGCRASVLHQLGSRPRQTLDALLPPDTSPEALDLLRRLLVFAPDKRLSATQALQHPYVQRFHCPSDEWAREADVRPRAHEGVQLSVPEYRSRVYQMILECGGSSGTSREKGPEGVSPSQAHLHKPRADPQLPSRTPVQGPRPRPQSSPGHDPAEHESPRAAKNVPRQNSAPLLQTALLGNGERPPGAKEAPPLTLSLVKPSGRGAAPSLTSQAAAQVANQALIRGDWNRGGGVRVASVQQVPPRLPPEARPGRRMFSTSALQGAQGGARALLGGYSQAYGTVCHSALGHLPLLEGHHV
Outline: as §1

[6] = target: T6, ~100 representative kinases (Homo sapiens, UniProt Q9UKI8); conditions: Protein TLK1; DSF; average of three replicates
T6 construct: Recombinant protein kinase domains with a concentration of 2 μM
T6 sequence (Q9UKI8 1-766): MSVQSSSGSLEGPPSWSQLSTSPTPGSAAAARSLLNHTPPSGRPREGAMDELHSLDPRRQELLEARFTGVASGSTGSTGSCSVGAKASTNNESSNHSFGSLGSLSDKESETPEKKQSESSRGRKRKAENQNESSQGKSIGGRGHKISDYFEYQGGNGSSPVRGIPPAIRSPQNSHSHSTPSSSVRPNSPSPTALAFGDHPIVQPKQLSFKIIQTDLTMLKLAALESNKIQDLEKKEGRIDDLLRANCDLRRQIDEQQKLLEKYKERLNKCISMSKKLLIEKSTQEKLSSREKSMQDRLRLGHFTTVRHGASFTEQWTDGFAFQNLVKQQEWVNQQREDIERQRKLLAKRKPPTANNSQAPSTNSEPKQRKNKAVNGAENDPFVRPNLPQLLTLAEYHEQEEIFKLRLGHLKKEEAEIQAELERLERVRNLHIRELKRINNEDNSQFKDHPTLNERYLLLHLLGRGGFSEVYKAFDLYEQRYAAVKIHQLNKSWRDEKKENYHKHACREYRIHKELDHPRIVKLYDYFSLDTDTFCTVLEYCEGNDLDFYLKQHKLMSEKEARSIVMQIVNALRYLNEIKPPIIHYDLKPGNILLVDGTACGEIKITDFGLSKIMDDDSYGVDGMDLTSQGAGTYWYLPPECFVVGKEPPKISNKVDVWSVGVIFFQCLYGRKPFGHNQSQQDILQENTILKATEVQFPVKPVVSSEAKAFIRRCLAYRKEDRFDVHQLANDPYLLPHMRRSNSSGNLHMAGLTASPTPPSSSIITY
Outline: as §1

T4 sequence (P49841 whole entry, the tested form may be a part): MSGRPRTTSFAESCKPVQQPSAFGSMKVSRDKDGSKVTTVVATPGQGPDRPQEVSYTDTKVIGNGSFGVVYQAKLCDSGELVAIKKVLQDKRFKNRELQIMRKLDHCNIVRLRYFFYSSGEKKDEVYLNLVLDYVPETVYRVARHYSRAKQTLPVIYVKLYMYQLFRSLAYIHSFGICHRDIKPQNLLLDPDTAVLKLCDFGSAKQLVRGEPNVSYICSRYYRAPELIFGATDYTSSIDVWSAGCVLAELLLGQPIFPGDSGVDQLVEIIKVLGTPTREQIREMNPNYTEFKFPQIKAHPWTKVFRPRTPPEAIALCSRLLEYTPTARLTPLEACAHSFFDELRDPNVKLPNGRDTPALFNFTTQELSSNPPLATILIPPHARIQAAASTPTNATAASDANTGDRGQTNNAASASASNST
T1 sequence (O43293 whole entry, the tested form may be a part): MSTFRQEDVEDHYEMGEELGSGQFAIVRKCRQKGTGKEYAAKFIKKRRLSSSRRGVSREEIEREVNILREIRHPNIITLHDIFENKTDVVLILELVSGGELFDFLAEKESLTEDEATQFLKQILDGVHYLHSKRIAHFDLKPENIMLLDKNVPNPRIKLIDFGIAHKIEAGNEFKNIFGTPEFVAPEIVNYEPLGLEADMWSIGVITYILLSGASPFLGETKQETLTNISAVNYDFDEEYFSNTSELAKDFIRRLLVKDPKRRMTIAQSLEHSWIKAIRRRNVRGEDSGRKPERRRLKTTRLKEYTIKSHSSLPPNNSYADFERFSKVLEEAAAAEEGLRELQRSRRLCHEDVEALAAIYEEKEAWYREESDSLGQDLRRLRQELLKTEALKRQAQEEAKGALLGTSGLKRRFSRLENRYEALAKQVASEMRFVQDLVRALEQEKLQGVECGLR

| Structure (SMILES) | dTm [1] | dTm [2] | dTm [3] | dTm [4] | dTm [6] | dTm [5] |
| --- | --- | --- | --- | --- | --- | --- |
| Cc1ccc(C(=O)Nc2ccc(CN3CCN(C)CC3)c(C(F)(F)F)c2)cc1C#Cc1cnc2cccnn12 [Ponatinib, reference compound] |  | -1.68 K |  |  |  |  |
| Cc1cc(NC(=O)C2(C(=O)Nc3ccc(F)cc3)CC2)cc(-c2c[nH]c3ncnc(N4CCOCC4)c23)c1 [Compound 6] | 3.25 K | 0.00 K | -0.18 K | 3.83 K | 1.18 K | 5.91 K |
| O=C(Nc1ccccc1)C1(C(=O)Nc2cccc(-c3c[nH]c4ncnc(N5CCOCC5)c34)c2)CC1 [Compound 12] | 6.20 K | 7.92 K | 0.29 K | 5.87 K | 0.18 K | 8.68 K |
| Cn1cc(-c2c[nH]c3ncnc(N4CCOCC4)c23)cc1C#N [PFE-360] | 1.10 K | -2.21 K |  | 5.50 K | -0.11 K | 3.82 K |
| COc1cc2c(Oc3ccc(NC(=O)C4(C(=O)Nc5ccc(F)cc5)CC4)cc3F)ccnc2cc1OCCCN1CCOCC1 [Foretinib, reference compound] | 5.00 K | 3.63 K | -11.10 K | 3.46 K | 0.36 K | 8.58 K |
| Cc1ccc(C(=O)Nc2ccc(CN3CCN(C)CC3)c(C(F)(F)F)c2)cc1C#Cc1cnc2[nH]ncc2c1 [GZD-824, reference compound] | 0.50 K | -1.15 K |  | 4.71 K | -0.0844 K | 5.29 K |
| O=C(Nc1cccc(-c2c[nH]c3ncnc(N4CCOCC4)c23)c1)C1(C(=O)Nc2cccc3c2CCC3)CC1 [Compound 11] | 3.33 K | 0.00 K | -8.36 K | 8.12 K | 1.55 K | 5.24 K |
| Cc1ccc(NC(=O)C2(C(=O)Nc3cccc(-c4c[nH]c5ncnc(N6CCOCC6)c45)c3)CC2)cc1 [Compound 14] | 4.16 K | 4.70 K | 0.67 K | 4.34 K | -0.87 K | 5.81 K |
| O=C(Nc1ccc(Cl)cc1)C1(C(=O)Nc2cccc(-c3c[nH]c4ncnc(N5CCOCC5)c34)c2)CC1 [Compound 13] | 8.55 K | 8.61 K | -6.06 K | 7.55 K | 0.97 K | 9.74 K |
| O=C(Nc1ccc(F)cc1)C1(C(=O)Nc2cccc(-c3c[nH]c4ncnc(N5CCOCC5)c34)c2)CC1 [Compound 2] | 7.00 K | 6.81 K | -0.03 K | 6.47 K | -1.13 K | 10.01 K |
| C[C@@H]1CN(c2cc(-c3n[nH]c4ccc(OC5(C)CC5)cc34)ncn2)C[C@H](C)O1 [MLi2] | 1.94 K | 0.38 K |  | 0.56 K | 0.0124 K | -0.33 K |

Now from value to compound, other results behind:

| dTm [1] | dTm [2] | dTm [3] | dTm [4] | dTm [6] | Structure (SMILES) | dTm [5] |
| --- | --- | --- | --- | --- | --- | --- |
| 3.66 K | 3.82 K | 0.12 K | 3.90 K | -0.64 K | O=C(Nc1cccc(-c2c[nH]c3ncnc(N4CCOCC4)c23)c1)C1(C(=O)Nc2ccc(F)cc2F)CC1 [Compound 23] | 6.01 K |
| 10.09 K | 10.15 K | 2.57 K | 9.68 K | -0.17 K | Cc1cc(NC(=O)C2(C(=O)Nc3cccc(-c4c[nH]c5ncnc(N6CCOCC6)c45)c3)CC2)ccc1F [Compound 20] | 12.42 K |
| 6.63 K | 2.85 K | -9.46 K |  | -1.67 K | CC(=O)N1CCN(c2nc(Cl)nc3[nH]cc(-c4cccc(NC(=O)Nc5cc(C(C)(C)C)nn5-c5ccc(C)cc5)c4)c23)CC1 [Compound 31] | 8.84 K |
| 8.34 K | 0.00 K | -5.01 K | 0.00 K | 2.03 K | O=C(Nc1cccc(-c2c[nH]c3ncnc(N4CCOCC4)c23)c1)C1(C(=O)Nc2ccc(F)c(Br)c2)CC1 [Compound 19] | 11.25 K |
| 6.34 K | -0.13 K | -11.52 K |  | -1.50 K | Cc1ccc(-n2nc(C(C)(C)C)cc2NC(=O)Nc2cccc(-c3c[nH]c4nc(Cl)nc(N5CCOCC5)c34)c2)cc1 [Compound 30] | 6.72 K |
| 14.79 K | 9.72 K | 1.86 K | 13.25 K | 0.24 K | CC(C)(C)c1cc(NC(=O)Nc2cccc(-c3c[nH]c4ncnc(N5CCOCC5)c34)c2)n(-c2ccc3ncccc3c2)n1 [Compound 28] | 14.38 K |
| 1.72 K | 1.02 K |  | 3.70 K | 0.65 K | CCNc1nc(Nc2cc(F)c(C(=O)N3CCOCC3)cc2OC)ncc1C(F)(F)F [GNE-7915] | 2.03 K |
| 10.62 K | 9.48 K | -2.64 K | 9.62 K | 0.17 K | O=C(Nc1cccc(-c2c[nH]c3ncnc(N4CCOCC4)c23)c1)C1(C(=O)Nc2ccc(F)c(Cl)c2)CC1 [Compound 18] | 12.35 K |
| 6.29 K | 10.98 K | -1.01 K |  | -1.95 K | COc1cc(C(=O)N2CCOCC2)c(F)cc1Nc1nc(N(C)C)c2c(Cl)c[nH]c2n1 [Compound 36] | 0.97 K |
| 3.62 K | 9.71 K | -0.93 K |  | -1.44 K | COc1cc(S(C)(=O)=O)ccc1Nc1nc(N(C)C)c2c(Cl)c[nH]c2n1 [Compound 37] | -0.10 K |
| 0.00 K | 6.55 K | -10.48 K |  | 0.25 K | Cc1ccc(-n2nc(C(C)(C)C)cc2NC(=O)Nc2cccc(-c3c[nH]c4ncnc(N5CCOCC5)c34)c2)cc1 [Compound 29] | 16.65 K |
